Source: patent publication US12298319B2, “Method for measuring alpha value of muscarinic M1 receptor positive allosteric modulators” (Takeda Pharmaceutical Company Limited, priority 2017, dated 2025)
Counter-ions that a name gives are not always drawn.

How the values were obtained:
[1] = tested on: scopolamine-induced cognitive deficits in rats; test: Novel object recognition task (NORT), scopolamine-induced memory deficits; format: in vivo, rat
Experimental: On the day before testing, Long Evans rats were allowed to habituate to the behavioral test room environment for over 1 h, and then they were allowed to habituate to the empty test box (a gray-colored polyvinyl chloride box (40×40×50 cm)) for 10 min individually. Testing was comprised of two 3-min trials called the acquisition and the retention trials. These trials were separated by a given inter-trial interval (ITI). On the testing day, in the acquisition trial, rats were allowed to explore two identical objects (A1 and A2) for 3 min. In the retention trial, rats were again allowed to explore a familiar object (A3) and a novel object (B) for 3 min. The object exploration was defined as rats' licking, sniffing or touching the object with limbs while sniffing. Leaning against the object to look upward, standing or sitting on the object was excluded. The exploration time of each object (A1, A2, A3 and B) in each trial was measured manually. Novel discrimination index (NDI) was calculated using the following equation: novel object interaction/total interaction×100(%).
The acquisition and the retention trials were separated by 4 h ITI. […] Scopolamine (0.1 mg/kg) was administered subcutaneously 30 min prior to the acquisition trial.
(§1) The acquisition and the retention trials were separated by 4 h ITI.
as §1

rats = test: Assessment of cholinergic side effects in rats
Experimental: SD Rats were placed individually into observation cages and acclimated for at least 1 h. […] The severity of diarrhea was scored as follows: 0, normal pellets; 1, wet but formed feces; 2, swollen or mucous feces; 3, severe watery diarrhea. For diarrhea, the number of rats and mice, in which more than or equal to 2 was scored, was counted. For fasciculation, the number of rats with marked fasciculation of both the upper and lower limbs was counted. For lacrimation, the number of rats, in which moderate to marked discharge (severer lacrimation than fluid around eyes) was induced, was counted. For salivation, the number of rats with severe salivation, but not just noticeably wet around mouth, was induced was counted. The maximum score during the observation was adopted.
(§2) For diarrhea, the number of rats scored more than or equal to 2 was counted. For fasciculation, the number of rats with marked fasciculation of both the upper and lower limbs was counted. For lacrimation, the number of rats in which moderate to marked discharge (severer lacrimation than fluid around eyes) was counted. For salivation, the number of rats with severe salivation, but not just noticeably wet around mouth, was counted. The maximum score during the observation was adopted. Data were presented as the number of incidence per total rats.
as §2, with “in which loose” for “scored more than”, “mucous stool, or diarrhea was induced” for “equal to 2”, “(severe” for “(severer”, “eyes) was caused” for “eyes)”, “mouth” for “mouth,”

[2] = tested on: layer 5 pyramidal neurons; test: Electrophysiology, current clamp of layer 5 pyramidal neurons in mPFC slices; format: cell-based, mouse; conditions: bath application, Compound D at 10 μM
Experimental: Experiments were performed on coronal brain slices of the medial prefrontal cortex (mPFC) from 4-week-old male C57BL/6 mice. The animals were quickly sacrificed and the brain was placed in an ice-cold NMDG artificial cerebrospinal fluid (ACSF) (in mM): NMDG, 92; KCl, 2.5; CaCl2, 0.5; NaH2PO4, 1.25; MgSO4, 6; NaHCO3, 30; glucose, 25; HEPES, 20; thiourea, 2; Na-ascorbate, 5; and Na-pyruvate, 3) (Ting J. T. et al., Methods Mol Biol. 2014; 1183:221-42). Slices were cut at a thickness of 300 μm with a vibroslicer. Slices were initially transferred to a holding chamber containing NMDG aCSF for 15 minutes at 34° C. Slices were then transferred to a room temperature holding chamber for at least 1 h containing HEPES aCSF (in mM): NMDG, 92; KCl, 2.5; CaCl2, 2; NaH2PO4, 1.25; MgSO4, 2; NaHCO3, 30; glucose, 25; HEPES, 20; thiourea, 2; Na-ascorbate, 5; and Na-pyruvate, 3). Subsequently, the slices were transferred to the recording chamber, in which they were submerged and perfused with aCSF containing the following (in mM): NaCl, 124; KCl, 5; NaH2PO4, 1.2; MgCl2, 1.5; CaCl2, 2.5; glucose, 10; and NaHCO3, 24), at a flow rate of 1-2 ml/min. All buffers were continuously bubbled and saturated with carbogen (95% O2/5% CO2). Current clamp recordings were carried out at 32-33° C. from visually identified pyramidal neurons from layer 5 using a borosilicate pipette (5-7 MΩ) filled with intracellular solution (in mM): K-gluconate, 135; KCl, 4; HEPES, 10; EGTA, 0.2; MgATP, 4; Na2GTP, 0.3; pH 7.3 with KOH). Signals were acquired using a Multiclamp 700B amplifier and a Digidata 1440A interface board (Molecular Devices Japan, Tokyo, Japan), filtered between 2 kHz, sampled at 10 kHz, and analyzed with pClamp10 software.
M1Rs are known to contribute to the three cholinergic effects in layer 5 pyramidal neurons: the resting membrane potential (RMP) and physiological responses such as the after hyperpolarization (AHP) the after depolarization (ADP) that typically follow brief periods of action potential generation (Gulledge et al., J. Neurosci. 2009 Aug. 5; 29(31): 9888-9902). To investigate effects of M1 PAMs with different n value on brain function, cholinergic excitation by Compound D and Compound C were assessed. First, the muscarinic receptor agonist carbachol ([…] for 10 min) was tested by bath application (FIG. 13-A, FIG. 13-B, FIG. 13-C).

[3] = carbachol 10 M [sic] for 10 min

CCN(C)C(=O)Oc1cccc([C@H](C)N(C)C)c1 [Rivastigmine, rivastigmine]
NDI ([1]; scopolamine-treated rats, rivastigmine 0.1 mg/kg i.p. alone, Example 31): 53.9%

COc1cc2c(cc1OC)C(=O)C(CC1CCN(Cc3ccccc3)CC1)C2 (stereo not shown) [Donepezil, Donepezil hydrochloride]
NDI in NORT, scopolamine-induced deficits ([1]; 0.3 and 1 mg/kg p.o., rats, P≤0.025): significantly increased NDI | minimal efficacy dose in rats (cognitive improvement) ([1]; NORT, scopolamine-treated rats, p.o.): 0.3 mg/kg | NDI ([1]; scopolamine-treated rats, 0.1 mg/kg p.o. alone, Example 28): 52.7% | NDI ([1]; scopolamine-treated rats, donepezil 0.1 mg/kg p.o. alone, Example 29): 49.5% | cholinergic side effects in addition to diarrhea (rats; 10 mg/kg p.o., rats): induced salivation, myosis, and fasciculation | diarrhea induction in rats (score) (rats; P≤0.025 at 10 and 30 mg/kg p.o.): induced diarrhea dose-dependently

C[N+](C)(C)CCOC(N)=O [Carbachol, carbachol]
after hyperpolarization (AHP) [2, 3]: suppressed AHP | resting membrane potential (RMP) [2, 3]: induced depolarization of the RMP | after depolarization (ADP) ([2]; carbachol for 10 min as printed): produced an ADP potential
